This is an account of results in patent publication US20050282258A1 (priority 2004, published 2005).

The test system of one assay is yggA transcription. It counts as cell-based, Escherichia coli. To be noted: for Beta-galactosidase specific activity (units) in medium with 1 mM lysine / Beta-galactosidase specific activity (units) in medium with 1 mM arginine: glucose-minimal A medium, 37° C.; for transcription of the yggA gene upon supplementation of the culture medium: strains carrying the wild-type argP gene.

Assay [1] has as its system wild-type E. coli strain MC4100. The experiment in a line: Canavanine tolerance of strains, growth in glucose-minimal A medium. The class given is cell-based, Escherichia coli. To be noted: scored after 24 hours at 37° C.
[2] abbreviates: strain GJ4748/pHYD956 (argR), Nil = 217.
Where [3] appears, read: strain MC4100/pHYD926/pHYD956 (argP-S94L), Nil = 1557.
Where [4] appears, read: strain MC4100/pHYD956, Nil = 20.

Where two headings read alike, the source gives them in different places.

Take `NCCCC[C@H](N)C(=O)O` [lysine]: the “Beta-galactosidase specific activity (units) in medium with 1 mM lysine” value turned out to be 29 units with yggA transcription (setting [2]), 1616 units in the assay on yggA transcription (setting [3]) and 14 units with yggA transcription (setting [4]). Moreover, in the assay with yggA transcription, the “transcription of the yggA gene upon supplementation of the culture medium” value (from here on “transcription”) is on record as “substantially repressed”.
Turning to `N=C(N)NCCC[C@H](N)C(=O)O` [arginine], the “Beta-galactosidase specific activity (units) in medium with 1 mM arginine” value is listed as 424 units in the assay on yggA transcription (setting [2]), 1514 units in the assay with yggA transcription (setting [3]) and 66 units with yggA transcription (setting [4]). Moreover, the “transcription” value with yggA transcription is listed as “induced”.
For `NC(=O)NCCC[C@H](N)C(=O)O` [citrulline], the “transcription” value in the assay on yggA transcription was “induced”.
As to `N=C(N)NOCC[C@H](N)C(=O)O` [canavanine], the “growth of MC4100 (canavanine tolerance)” value is reported as “resistant” in assay [1] (20 micrograms/ml of canavanine) and “sensitive” in assay [1] (65 micrograms/ml of canavanine in the presence of uracil at 40 micrograms/ml). Moreover, in the assay on yggA transcription, the “transcription” value was “induced”.
